The values that follow come from patent publication US9714936B2, “Method for evaluating cosmetic” (SHISEIDO COMPANY, LTD., priority 2011, dated 2017).

Assay [1] concerns freeze-dried J-TEC Human Reconstituted Epidermis model (stratum corneum sheet). Description: Transparency and transmittance of freeze-dried stratum corneum sheet after wetting and drying (FIG. 7). The settings on record: wetted 30 minutes, dried 18 hours at 34° C., 60% humidity. As to the method: The freeze-dried stratum corneum sheet was wetted for 30 minutes in a 10% glycerin aqueous solution, in an aqueous solution of liquid paraffin (10%), glycerin (10%), POE(60) hydrogenated castor oil (10%), carboxyvinyl polymer (product name: CARBOPOL 981 by Lubrizol Advanced Materials, Inc.) (0.2%) and KOH (0.1%) (liquid paraffin+glycerin+thickener aqueous solution), and in 100% ethanol, and after removing the liquid, drying was performed for 18 hours in an atmosphere at 34° C., 60% humidity, and the sheet was photographed (FIG. 7). […] Since higher transparency of the stratum corneum can be considered a more excellent skin condition, the state of improvement in skin can be evaluated based on the thickness change in the stratum corneum cells or cell layer from moistening in a liquid until drying.

In assay [2] the test system is J-TEC Human Reconstituted Epidermis Model (stratum corneum sheet). The experiment in a line: Visual examination of stratum corneum sheet transparency after wetting and drying (Example 6). The settings on record: visually examined after wetting 30 minutes and drying 18 hours at 34° C., 60% humidity. Here is the method:
(§1) The thickness of a J-TEC Human Reconstituted Epidermis Model (stratum corneum sheet) before the experiment was measured with a caliper (Caliper No. 227-201 by Mitsutoyo Corp.) (one location each) (A). The stratum corneum sheet was further wetted for 30 minutes in a 10% glycerin aqueous solution, an aqueous solution of liquid paraffin (10%), glycerin (10%), POE(60) hydrogenated castor oil (10%), carboxyvinyl polymer (product name: CARBOPOL 981, Lubrizol Advanced Materials, Inc.) (0.2%) and KOH (0.1%) (liquid paraffin+glycerin+thickener aqueous solution), and in 100% ethanol, and immediately upon completion of wetting, the thickness of the stratum corneum sheet was measured with a caliper in the same manner (B).
(§2) It was further dried for 18 hours under conditions of 34° C., 60% humidity and the stratum corneum sheet was measured (C). Using theses results, the thickness change rate (%) of the stratum corneum sheet was measured based on the following formula 1: Thickness change rate (%)=(B−A)×100/A−(C−B)×100/C

The test system is the same in assay [3]. The experiment in a line: Change in stratum corneum sheet thickness on wetting and drying (Example 6). Here is the method:
as §1, §2

SMILES strings stand for the structures.

Consider `CCO` [100% Ethanol, ethanol], for which the “transparency of freeze-dried stratum corneum sheet moistened and then dried (FIG. 7)” value in assay [1] is given as “low”. The “stratum corneum transmittance of freeze-dried sheet moistened and then dried (FIG. 7)” value in assay [1] (HR100 spectrophotometer) was “low”. In addition, in assay [2], the Transparency entry is reported as “Poor”. Moreover, the “Thickness change rate (%)” value in assay [3] ((B−A)×100/A−(C−B)×100/C, wetted 30 minutes, dried 18 hours at 34° C., 60% humidity, caliper) turned out to be 3.9%. Besides, the “change in thickness of stratum corneum sheet when moistened (FIG. 6)” value in assay [3] (after wetting with the liquid) is recorded as “no change in thickness”.
